Results on seven compounds are retold here after patent EP4671239A1, “ARYL SUBSTITUENT-CONTAINING DEGRADATION AGENT FOR CDK12/13, PREPARATION METHOD THEREFOR, AND PHARMACEUTICAL COMPOSITION AND USE THEREOF” (Shanghai Institute of Organic Chemistry, Chinese Academy of …, priority 2023, dated 2024).

The subject of data set [1] is CDK12 and CDK13 proteins. In words: Degradation activity on CDK12/13 in 22RV1 cells (Western Blot). It counts as cell-based. Particulars: 22RV1 cells; for degradation of CDK12 and CDK13 protein levels in cells: 500 nM, 6 hours, WB (FIG. 4); for degradation of CDK12 and CDK13 proteins: 100 nM, 6 h (FIG. 5); for dose dependence of degradation of CDK12 and CDK13 proteins: different concentrations, 6 h (FIG. 4B, FIG. 5). On the procedure:
Experimental methods: The cell line, 22RV1 cell line was purchased from the American Type Culture Collection (ATCC). Conventional Western Blot was used for detection as follows: 22RV1 cells were seeded in a certain number in a 12-well plate, and cultured overnight in an incubator in an adherent manner. […] The cells were lysed with a lysis buffer, and samples were collected. Then, an appropriate amount of the samples was taken for SDS-PAGE electrophoresis. After electrophoresis, the proteins were transferred to nitrocellulose membranes using a semi-dry electro-transfer system. The nitrocellulose membrane was placed in a blocking solution (5% skim milk powder diluted in TBS containing 0.1% Tween 20) and blocked at room temperature for 2 h. The membranes were then placed in a primary antibody solution (1: 1000 diluted in TBS containing 0.1% Tween 20), respectively, and incubated at 4°C overnight. The cells were washed three times with TBS containing 0.1% Tween 20, each time for 15 min. The membrane was placed in a secondary antibody solution (horseradish peroxidase-labeled goat anti-rabbit IgG, diluted at 1:1000 in TBS containing 0.1% Tween 20) and reacted at room temperature for 1 h. After washing the membrane three times as above, the membrane was developed with ECL plus reagent and photographed using Amersham Imager 600 system.
For orientation: A western blot detects proteins with antibodies after separation by electrophoresis.

Data set [2] concerns prostate cancer VCap cells. Kind of data set: Proliferation-inhibiting activity on VCap cells (CellTiter-Glo). To be noted: Homo sapiens; VCap cell line, CellTiter-Glo (FIG. 6). The class given is cell-based. On the procedure:
The cell proliferation-inhibiting activity of the compounds was determined using the CellTiter-Glo Luminescent Cell Viability Assay (Promega, Madison, WI). The cells were seeded in a 96-well plate in their respective culture media and incubated at 37°C in a 5% CO2 incubator. After overnight incubation, serial dilutions of the compounds were prepared and added to the 96-well plate. A volume of CellTiter-Glo reagent equal to the volume of the cell culture medium present in each well was added (e.g., 100 microliters of the reagent was added to 100 microliters of the culture medium for the cells in the 96-well plate). The contents were mixed on an orbital shaker for 2 min to induce cell lysis. The 96-well plate was incubated at room temperature for 10 minutes to stabilize a luminescent signal. Luminescence was recorded: the luminescence signal of each well was acquired using an Infinite M1000 Pro plate reader (Tecan, Zürich, Switzerland), and the data were analyzed using GraphPad Prism software (GraphPad Software Inc, La Jolla, CA).

Data set [3] is described as follows: Pharmacokinetics and bioavailability test in rats (Example 60). Particulars: SD rats; for F: bioavailability calculated from AUC; for oral pharmacokinetic properties: summary in words of Tables 2-6; for Cmax / Tmax / half-life / clearance: rat. It counts as in vivo. On the procedure:
Pharmacokinetics and bioavailability tests in rats. SD rats were given a single oral (10 mg/kg), intravenous (2.5 mg/kg) and intraperitoneal (10 mg/kg) dose, followed by animal blood sample collection at appropriate time points. Heparin was added for anticoagulation, and the samples were centrifuged at 8000 rpm for 6 min. The supernatant was collected and stored at -20°C for HPLC-MS analysis. The blood samples underwent protein precipitation with acetonitrile at 12 000 rpm * 10 min, and the supernatant was used for HPCL-MS analysis. The data underwent parameter fitting with DAS2.0, to obtain compartmental model and non-compartmental model parameters, respectively. The oral bioavailability of the compounds was calculated based on the area under the plasma concentration-time curve (AUC) data. […] Table 2. Pharmacokinetic experimental results of compounds YJZ9069 and YJZ1102

Where [4] appears, read: Sprague-Dawley, plasma, IV 2.5 mg/kg.
Where [5] appears, read: Sprague-Dawley, plasma, PO 10 mg/kg.

In general, IC50 refers to the concentration needed to halve the response being measured. A high value points to a need for much substance. One may read the Cmax as the highest concentration seen after dosing. Usually Tmax stands for the time from dosing to the highest level. In general, half-life refers to how long it takes for the measured level to halve. High values mean slow decline, low ones rapid decline. A word on the clearance: it is the rate of elimination divided by the concentration. High values mean a high capacity for elimination, low ones a low capacity for elimination. For `O=C1CCC(N2C(=O)c3ccc(N4CC(CN5CCN(c6ccc(N(C(=O)NCc7ccccc7)[C@H]7CC[C@H](Nc8ncc9ccccc9n8)CC7)cc6)CC5)C4)cc3C2=O)C(=O)N1` (stereo partly shown) [YJZ1102], the “degradation of CDK12 and CDK13 protein levels in cells” value (shortened to “degradation … in cells”) in data set [1] is listed as “effectively degrade”. In data set [2], this compound showed a half-maximal inhibitory concentration (IC50) of 16.3 nM. For the same compound, the F in data set [3] (IP 10 mg/kg) was 94.15%. Besides, the F in data set [3] (PO 10 mg/kg) is 17.28%. The oral pharmacokinetic properties entry in data set [3] is reported as “excellent”. In data set [3] (in vivo, IP 10 mg/kg), the Cmax came to 662 ng/mL, the Tmax came to 6.67 h and the half-life is 26.4 h. In data set [3] (in vivo, IV 2.5 mg/kg), the maximum concentration (Cmax) came out at 2200 ng/mL, the Tmax amounted to 0.08 h, the clearance was 3.32 mL/min/kg and the half-life is 10.7 h. In addition, in data set [3] (in vivo, PO 10 mg/kg), the concentration peaked (Cmax) at 148 ng/mL, the Tmax came out at 6 h and the half-life was 10.4 h.

On to `O=C1CCC(N2C(=O)c3ccc(N4CCC(N5CCN(c6ccc(N(C(=O)NCc7ccccc7)[C@H]7CC[C@H](Nc8ncc9ccccc9n8)CC7)cc6)CC5)CC4)cc3C2=O)C(=O)N1` (stereo partly shown) [YJZ1105, 3-benzyl-1-(4-(4-(1-(2-(2,6-dioxopiperidin-3-yl)-1,3-dioxoisoindol-5-yl)piperidin-4-yl)-piperazin-1-yl)phenyl)-1-((1r,4r)-4-(quinazolin-2-ylamino)cyclohexyl)urea], for which the “degradation … in cells” value in data set [1] is “effectively degrade”. In addition, the midpoint of inhibition in data set [2], the IC50, lay at 15.1 nM. The F in data set [3] (PO 10 mg/kg) was 26.64%. For the same compound, in data set [3], the oral pharmacokinetic properties result is “excellent”. Further, in data set [3] (setting [4]), the Cmax came to 1390 ng/mL, the time of peak concentration (Tmax) amounted to 0.08 h, the clearance was 4.8 mL/min/kg and the half-life was 7.05 h. Further, in data set [3] (setting [5]), the Cmax came out at 625 ng/mL, the Tmax was determined as 6 h and the half-life was 7.2 h.

Regarding `O=C1CCC(N2C(=O)c3cc(F)c(N4CCC(N5CCN(c6ccc(N(C(=O)NCc7ccccc7)[C@H]7CC[C@H](Nc8ncc9ccccc9n8)CC7)cc6)CC5)CC4)cc3C2=O)C(=O)N1` (stereo partly shown) [YJZ1201], in data set [1], the “degradation of CDK12 and CDK13 proteins” value is reported as “almost completely degrade”; the “degradation … in cells” value is “effectively degrade”; the “dose dependence of degradation of CDK12 and CDK13 proteins” value (“dose dependence” below) is given as “dose-dependent manner”. In data set [2], this compound came in with an IC50 of 64.4 nM. Moreover, the F in data set [3] (PO 10 mg/kg) is listed as 39.60%. In addition, the oral pharmacokinetic properties entry in data set [3] is “excellent”. Also, in data set [3] (setting [4]), the highest level (Cmax) was 2510 ng/mL, the Tmax came to 0.08 h, the clearance was 3.27 mL/min/kg and the half-life was 10.8 h. For the same compound, in data set [3] (setting [5]), the highest concentration (Cmax) was 1040 ng/mL, the Tmax came out at 6.67 h and the half-life is 12.4 h.

For `O=C1CCC(N2C(=O)c3ccc(N4CCN(C5CCN(c6ccc(N(C(=O)NCc7ccccc7)[C@H]7CC[C@H](Nc8ncc9ccccc9n8)CC7)cc6)CC5)CC4)cc3C2=O)C(=O)N1` (stereo partly shown) [YJZ1202, 3-benzyl-1-(4-(4-(2-(2,6-dioxopiperidin-3-yl)-1,3-dioxoisoindole-5-yl)piperazin-1-yl)piperidin-1-ylphenyl)-1-((1r,4r)-4-(quinazolin-2-ylamino)cyclohexyl)urea], in data set [1], the “degradation of CDK12 and CDK13 proteins” value is “almost completely degrade”; the “degradation … in cells” value is reported as “effectively degrade”; the “dose dependence” value is “dose-dependent manner”. Moreover, the IC50 in data set [2] came to 17.5 nM. For the same compound, the F in data set [3] (PO 10 mg/kg) is 13.51%. Further, in data set [3], the oral pharmacokinetic properties entry is reported as “excellent”. In data set [3] (in vivo, IV 2.5 mg/kg), the peak level (Cmax) was 2310 ng/mL, the time to peak (Tmax) was found to be 0.08 h, the clearance was 6.7 mL/min/kg and the half-life is 4.13 h. For the same compound, in data set [3] (in vivo, PO 10 mg/kg), the Cmax was 291 ng/mL, the time of peak concentration (Tmax) turned out to be 5.33 h and the half-life was 3.76 h.

For `O=C1CCC(N2C(=O)c3ccc(N4CCC(N5CCN(c6ccc(N(C(=O)NCc7ccccc7F)[C@H]7CC[C@H](Nc8ncc9ccccc9n8)CC7)cc6)CC5)CC4)cc3C2=O)C(=O)N1` (stereo partly shown) [YJZ1203], in data set [1], the “degradation of CDK12 and CDK13 proteins” value was “almost completely degrade”; the “degradation … in cells” value is “effectively degrade”; the “dose dependence” value was “dose-dependent manner”. In data set [2], the half-inhibitory concentration (IC50) worked out at 18.8 nM. The F in data set [3] (PO 10 mg/kg) was 16.95%. Besides, in data set [3], the oral pharmacokinetic properties entry was “excellent”. Besides, in data set [3] (setting [4]), the Cmax was 3060 ng/mL, the Tmax is 0.08 h, the clearance was 5.22 mL/min/kg and the half-life is 6.19 h. Also, in data set [3] (setting [5]), the Cmax worked out at 382 ng/mL, the time to peak (Tmax) is 6.7 h and the half-life was 6.4 h.

Consider `O=C1CCC(N2C(=O)c3ccc(N4CCC(N5CCN(c6ccc(N(C(=O)NCc7ccccc7)[C@H]7CC[C@H](Nc8ncc9ccccc9n8)CC7)cc6F)CC5)CC4)cc3C2=O)C(=O)N1` (stereo partly shown) [YJZ1204, 3-benzyl-1-(4-(4-(1-(2-(2,6-dioxopiperidin-3-yl)-1,3-dioxoisoindole-5-yl)piperidin-4-yl)-piperazin-1-yl)-3-fluorophenyl)-1-((1r,4r)-4-(quinazolin-2-ylamino)cyclohexyl)urea], for which, in data set [1], the “degradation of CDK12 and CDK13 proteins” value is “almost completely degrade”; the “degradation … in cells” value is recorded as “effectively degrade”; the “dose dependence” value is recorded as “dose-dependent manner”. In data set [2], this compound showed an IC50 of 23.3 nM. The F in data set [3] (PO 10 mg/kg) is reported as 30.13%. Further, the oral pharmacokinetic properties result in data set [3] is given as “excellent”. Also, in data set [3] (setting [4]), the peak concentration (Cmax) was determined as 2290 ng/mL, the Tmax is 0.08 h, the clearance is 6.01 mL/min/kg and the half-life is 8.54 h. In data set [3] (setting [5]), the maximum concentration (Cmax) came out at 457 ng/mL, the time of peak concentration (Tmax) was 7.33 h and the half-life was 10.8 h.

As to `O=C1CCC(N2C(=O)c3ccc(N4CCC(N5CCN(c6ccc(N(C(=O)NCc7ccccc7)[C@H]7CC[C@H](Nc8ncc9ccccc9n8)CC7)cn6)CC5)CC4)cc3C2=O)C(=O)N1` (stereo partly shown) [YJZ1205], in data set [1], the “degradation of CDK12 and CDK13 proteins” value is “almost completely degrade”; the “degradation … in cells” value is recorded as “effectively degrade”; the “dose dependence” value was “dose-dependent manner”. In data set [2], this compound came in with a half-inhibitory concentration (IC50) of 13.5 nM. Besides, in data set [3] (PO 10 mg/kg), the F was 15.87%. Moreover, the oral pharmacokinetic properties result in data set [3] is recorded as “excellent”. In data set [3] (setting [4]), the concentration peaked (Cmax) at 3620 ng/mL, the time to peak (Tmax) is 0.08 h, the clearance is 3.93 mL/min/kg and the half-life was 3.81 h. Further, in data set [3] (setting [5]), the peak level (Cmax) was 581 ng/mL, the Tmax worked out at 4.7 h and the half-life is 4.2 h.
